# Test results published in ChEMBL document CHEMBL1201862, “PubChem BioAssay data set” (2004).
# The source made the active and inactive calls.
# Assays:
# [1] = target: T1, Corticotropin-releasing factor receptor 2/Corticotropin-releasing factor-binding protein (Homo sapiens, UniProt P24387+Q13324); assay: activators of CRF receptor 2 with binding protein – uHTS hits, confirmation (AID 602473); format: functional; conditions: read-out: EC50_Mean
# T1 sequence (Q13324 whole entry): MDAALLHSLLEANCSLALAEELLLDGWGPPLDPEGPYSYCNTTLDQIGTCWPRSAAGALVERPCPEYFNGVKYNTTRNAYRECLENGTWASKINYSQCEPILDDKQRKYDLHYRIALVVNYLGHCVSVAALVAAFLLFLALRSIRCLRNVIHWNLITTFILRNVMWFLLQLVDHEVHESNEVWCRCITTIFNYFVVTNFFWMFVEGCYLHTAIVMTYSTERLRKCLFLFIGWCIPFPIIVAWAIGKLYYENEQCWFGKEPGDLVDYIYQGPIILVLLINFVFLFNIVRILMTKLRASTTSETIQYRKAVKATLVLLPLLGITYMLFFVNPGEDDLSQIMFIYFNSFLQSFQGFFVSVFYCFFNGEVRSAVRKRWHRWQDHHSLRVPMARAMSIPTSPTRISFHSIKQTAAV
# T1 sequence (P24387 whole entry): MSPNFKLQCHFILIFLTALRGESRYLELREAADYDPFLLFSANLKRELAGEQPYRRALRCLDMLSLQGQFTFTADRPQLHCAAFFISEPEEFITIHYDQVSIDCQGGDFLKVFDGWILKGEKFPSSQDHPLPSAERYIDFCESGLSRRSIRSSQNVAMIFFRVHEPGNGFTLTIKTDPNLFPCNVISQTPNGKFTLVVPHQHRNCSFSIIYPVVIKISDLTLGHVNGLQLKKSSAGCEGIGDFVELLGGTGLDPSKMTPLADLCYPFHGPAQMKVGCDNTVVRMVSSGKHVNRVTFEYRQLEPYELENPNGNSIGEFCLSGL
# Cytochrome P450 2C19 = Cytochrome P450 2C19 (Homo sapiens, UniProt P33261); assay: Cytochrome panel assay with activity outcomes. Panel member name: p450-cyp2c19 Compounds with AC50 equal or less than 10 uM are considered active; format: functional
# [2] = inhibitors of intracellular T. cruzi replication, confirmation, NIH3T3 host cells, beta-gal luminescence (AID 2044); format: functional, cell-based;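 further: intracellular parasites grown in NIH/3T3 mouse fibroblasts as host cells; luminescent beta-galactosidase reporter signal from transgenic T. cruzi replicating inside host cells; inhibitors lower the luminescence signal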
# [3] = cytotoxicity toward NIH3T3 fibroblasts, dose response, counter-screen, cell-based, ATP luminescence, mouse fibroblasts (AID 2010); format: functional;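 further: cells exposed to compound for about 90 hours before reading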
# [4] = Luminescence Cell-Based Dose Response HTS to Identify Inhibitors of 5'UTR Stem-Loop Driven Prion Protein mRNA Translation in H4 Neuroglioblastoma Cells. [Related pubchem assays: 1827 (Project Summary), 1813 (Primary HTS)]; format: functional
# [5] = inhibitors of SNCA 5'UTR-driven reporter translation, confirmation, H4 neuroglioma cells, luminescence (AID 1988); format: functional, cell-based
# [6] = inhibitors of firefly luciferase expression or activity, dose response, H4 neuroglioma cells, luminescence (AID 1990); format: functional, cell-based
# Cytochrome P450 2C19, sequence (P33261 whole entry): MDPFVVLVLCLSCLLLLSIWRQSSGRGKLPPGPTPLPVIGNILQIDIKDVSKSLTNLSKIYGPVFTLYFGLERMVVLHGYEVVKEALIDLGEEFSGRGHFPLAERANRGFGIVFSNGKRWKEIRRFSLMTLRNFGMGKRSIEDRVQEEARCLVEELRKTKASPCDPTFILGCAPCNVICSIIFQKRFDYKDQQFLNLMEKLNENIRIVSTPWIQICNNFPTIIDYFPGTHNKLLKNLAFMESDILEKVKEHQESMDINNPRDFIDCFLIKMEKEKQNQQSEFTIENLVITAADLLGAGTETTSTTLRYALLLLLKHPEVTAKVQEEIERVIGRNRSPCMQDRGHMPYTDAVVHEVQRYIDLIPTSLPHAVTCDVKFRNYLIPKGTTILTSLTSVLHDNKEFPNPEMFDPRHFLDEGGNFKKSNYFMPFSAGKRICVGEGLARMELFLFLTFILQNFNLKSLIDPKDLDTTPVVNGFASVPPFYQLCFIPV
Structure (SMILES),EC50 [2],EC50 [3],EC50 [4],EC50 [5],EC50 [6],further results
COc1ccc(N(CC(=O)NN=C2CCCC2)S(=O)(=O)c2ccccc2)cc1Cl,,,,,,EC50 [1]: 4.37 µM (active)
COc1ccc(-n2c(S)nnc2CNC(=O)c2cc(OC)c(OC)c(OC)c2)cc1,,,,,,AC50 (Cytochrome P450 2C19): inconclusive
Cc1c(C(=O)NCC2COc3ccccc3O2)oc2ccc(S(=O)(=O)N3CC(C)CC(C)C3)cc12 (stereo not given),1.79 µM (active),> 60 µM (not active),,,,
CC(C)c1ccc(C(O)P(=O)(OC2CCCCC2)OC2CCCCC2)cc1 (stereo not given),,,19.2 µM (active),> 120 µM (not active),> 120 µM (not active),
Cc1ccc2sc(N3CCN(C(=O)c4ccc([N+](=O)[O-])o4)CC3)nc2c1C,0.119 µM (active),> 30 µM (not active),,,,
O=C(CCc1ccc(S(=O)(=O)NCc2ccccc2)cc1)N1CCN(Cc2ccc3c(c2)OCO3)CC1,0.897 µM (active),> 30 µM (not active),,,,
NC(=NOC(=O)c1cc([N+](=O)[O-])ccc1Cl)c1cccnc1,,,> 120 µM (not active),> 120 µM (not active),> 120 µM (not active),
CCc1ccc(-c2nc(CSCC(=O)N3CCN(c4ccccn4)CC3)c(C)o2)cc1,,,15 µM (active),12 µM (active),8.61 µM (active),
Cc1ccc2c(c1)N1C(=O)c3ccccc3C1C1=C(O)CC(C)(C)CC1=N2 (stereo not given),,,18.1 µM (active),> 120 µM (not active),> 120 µM (not active),
CCN(CC)CCN(C(=O)c1ccc(S(=O)(=O)N2CCCCC2)cc1)c1nc2cc3c(cc2s1)OCO3,0.213 µM (active),> 60 µM (not active),,,,
CCC(NCCC1=CCCCC1)=C1C(=O)NC(=O)NC1=O,,,> 120 µM (not active),> 120 µM (not active),> 120 µM (not active),
Cc1ccc(-n2nnc(-c3nccs3)n2)cc1,,,0.985 µM (active),1.41 µM (active),4.02 µM (active),
COc1cc(CNC(=O)c2nc(Cn3nc(C)c(Br)c3C)no2)cc(OC)c1,,,> 120 µM (not active),42.7 µM (active),> 120 µM (not active),
O=C(Nc1ccc(N2CCCCC2)cc1)c1cc([N+](=O)[O-])cc([N+](=O)[O-])c1,0.411 µM (active),> 60 µM (not active),,,,
O=C(OCc1ccccc1)c1cn(-c2ccccc2)nc1-c1ccncc1,1.14 µM (active),33.5 µM (active),,,,
NC(S)=Nc1cccc2[nH]ccc12,,> 30 µM (not active),,,,
COC(=O)c1sc(NC(=S)NC(=O)c2cccc(C)c2)nc1C,,,,,,EC50 [1]: 9.05 µM (active)
Cc1cccc(NC(=O)CSc2nnc(C)c(=O)n2N)c1C,,,> 120 µM (not active),> 120 µM (not active),> 120 µM (not active),
Cc1cc(C)c(S(=O)(=O)N2CCN(c3ccc([N+](=O)[O-])c(-n4nc(C)cc4C)c3)CC2)c(C)c1,1.83 µM (active),> 60 µM (not active),,,,
CCN(Cc1ccc(O)cc1)CC1CCCN(CCc2cccc(F)c2)C1 (stereo not given),0.69 µM (active),40.3 µM (active),,,,
Nc1nc(NCCCN2CCOCC2)nc(Nc2ccccc2)c1[N+](=O)[O-],,,19 µM (active),> 120 µM (not active),40.7 µM (active),
O=C(CCCCCn1c(=S)[nH]c2ccc(N3CCOCC3)cc2c1=O)NC1CCN(Cc2ccccc2)CC1,0.595 µM (active),> 60 µM (not active),,,,

Structure (SMILES),EC50 [2],EC50 [3],EC50 [4],EC50 [5],EC50 [6],further results
CCC/C=C(\CCC)C(NC(=O)C(C)(C)C)c1ccc(C(=O)OC)cc1 (stereo not given),,,,,,AC50 (Cytochrome P450 2C19; read-out: AC50): 39.8 µM (inconclusive)
Cc1onc(-c2ccccc2Cl)c1C(=O)N(Cc1ccc(N(C)C)cc1)C(C)C,,,> 120 µM (not active),> 120 µM (not active),22.5 µM (active),
O=c1c(-c2ccc(O)cc2)coc2cc(O)cc(O)c12 [GENISTEIN],,,,,,AC50 (Cytochrome P450 2C19; read-out: AC50): 10 µM (inconclusive)
COc1cccc(-c2nc(CS(=O)(=O)CC(=O)NCCc3ccc(C)cc3)c(C)o2)c1,,,> 120 µM (not active),> 120 µM (not active),> 120 µM (not active),
CN1c2ccccc2Oc2c(c(=O)n(C)c(=O)n2C)C1c1cccc([N+](=O)[O-])c1 (stereo not given),,,,,,AC50 (Cytochrome P450 2C19; read-out: AC50): 14.1 µM (inconclusive)
CC(C)NC(=O)N1CCC2(CC1)CCN(S(C)(=O)=O)CC2,,,,,,AC50 (Cytochrome P450 2C19; read-out: AC50): 39.8 µM (inconclusive)
Cn1c(=N)n(CC(=O)c2ccc(Cl)c(Cl)c2)c2ccccc21,,,13.5 µM (active),9.54 µM (active),6.07 µM (inconclusive),
CC1(C)Cc2c(ccc3ccccc23)C(c2cc3ccccc3oc2=O)=N1,,,21.5 µM (active),> 120 µM (not active),11.1 µM (active),
CCc1c(C#N)c(SCCC(=O)Nc2ccc(F)cc2)nc2c1C(=O)CC(C)(C)C2,0.996 µM (active),> 60 µM (not active),,,,
Cc1ccc(C)c(NC(=O)c2ccccc2O)c1,,,,,,EC50 [1]: > 53 µM (inactive)
COc1cc(NC(=O)CCN2CCN(C/C=C/c3ccccc3)CC2)cc(OC)c1,0.918 µM (active),> 60 µM (not active),,,,
CC(=O)NCCC(=O)Nc1cc(S(=O)(=O)N2CCCCC2)ccc1N1CCN(C)CC1,0.231 µM (active),> 30 µM (not active),,,,
CN1CCN(CC2(O)CCN(S(=O)(=O)c3ccc(Cl)cc3)CC2)CC1,1.11 µM (active),> 60 µM (not active),,,,
Cc1ccc(Sc2nc(-c3ccccc3)ccc2C#N)cc1,,,,,,AC50 (Cytochrome P450 2C19; read-out: AC50): 0.631 µM (inconclusive)
Cc1ccccc1N1C(=O)NC(=O)/C(=C\c2ccc3c(c2)CCCN3Cc2ccccc2)C1=O,,,,,,EC50 [1]: 14.2 µM (active)
CC(C)NC(=O)c1ccccc1NC(=O)/C=C/c1cccc([N+](=O)[O-])c1,,,11.3 µM (active),9.29 µM (active),8.64 µM (active),
O=S(=O)(c1ccccc1)N1CCC2(CC1)OCCO2,,,6.97 µM (active),> 120 µM (not active),> 120 µM (not active),
O=C(O)c1ccccc1N/N=C\c1ccnc2ccccc12,,,11.1 µM (active),7.78 µM (active),,
CCOc1ccc(NS(=O)(=O)c2ccc(C(=O)NCC3(N4CCCCC4)CCCCC3)cc2)cc1,,,,,,EC50 [1]: 6.45 µM (active)
Cc1nn(Cc2ccccc2Cl)c(C)c1C(=O)NC1CCCc2ccccc21 (stereo not given),,,103 µM (active),58 µM (active),17.1 µM (active),
C#CCn1/c(=N/C(=O)c2ccc(S(=O)(=O)N3CCCc4ccccc43)cc2)sc2cc(S(N)(=O)=O)ccc21,0.819 µM (active),> 60 µM (not active),,,,
